Measured values taken from EP3046573B1, “AMYLIN ANALOGUES” (Zealand Pharma A/S, priority 2013, dated 2015).
Like-named read-outs stand apart in the source and are kept apart here. Numbered stars: 1 amine (or outer) side, 2 acyl side, 3 side chain; on linkers, the order of the positions; unused ones are H or OH. Bridge positions count the residues as written; N and C are the ends. Square brackets hold non-standard residues; d marks the D form. Peptide text beside a SMILES is read from it. * marks the point of attachment. C20 diacid = O=C(O)CCCCCCCCCCCCCCCCCCC(=O)*; γGlu = O=C(O)[C@H](CCC(=O)[*:2])N[*:1]; NMeI = CC[C@H](C)[C@H](NC)C(=O)O; Sar = CNCC(=O)O

How the values were obtained:
[1] = molecular target: T1, human calcitonin receptor (hCTR2) (Homo sapiens, UniProt P30988); test: hCTR2 assay: induction of cAMP (AlphaScreen cAMP Assay kit) in COS7 cells expressing hCTR2; type: cell-based
T1 construct: expressed in transfected cells
T1 sequence (P30988 25-474): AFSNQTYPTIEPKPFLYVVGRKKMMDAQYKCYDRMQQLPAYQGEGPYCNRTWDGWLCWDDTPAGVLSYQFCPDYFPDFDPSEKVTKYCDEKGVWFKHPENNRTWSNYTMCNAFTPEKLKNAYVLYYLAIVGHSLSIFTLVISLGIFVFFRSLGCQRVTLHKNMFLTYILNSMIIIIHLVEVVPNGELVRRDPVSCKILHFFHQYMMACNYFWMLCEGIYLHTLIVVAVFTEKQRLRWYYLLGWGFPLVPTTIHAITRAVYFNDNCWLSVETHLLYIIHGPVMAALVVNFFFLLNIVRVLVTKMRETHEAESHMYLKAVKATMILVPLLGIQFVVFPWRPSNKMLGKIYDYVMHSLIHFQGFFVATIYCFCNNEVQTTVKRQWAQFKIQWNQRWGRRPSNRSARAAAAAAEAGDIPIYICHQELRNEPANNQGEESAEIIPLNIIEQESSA
Procedure, shortened: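 cAMP read-out by AlphaScreen after cell lysis; EC50 and % efficacy vs pramlintide from 4-parameter logistic fitting. Agonist stimulation: hCTR2-COS7 stable cells, 15 min, 37° C, 100 µM IBMX, 0.1% casein, Tyrode/HEPES pH 7.4.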

[2] = Solubility assessment (turbidity absorbance at 325 nm); type: physicochemical; conditions: stock 2 mg/ml diluted 1:1, ambient temperature (typically 25°C), n=1; for Solubility, Acetate buffer pH 4: 100 mM acetate buffer pH 4.0; for Solubility, Acetate buffer pH 5: 100 mM acetate buffer pH 5.0; for Solubility, Histidine buffer pH 6: 100 mM histidine buffer pH 6.0; for Solubility, Histidine buffer pH 7: 100 mM histidine buffer pH 7.0; for Solubility, Phosphate buffer pH 6: 100 mM phosphate buffer pH 6.0; for Solubility, Phosphate buffer pH 7: 100 mM phosphate buffer pH 7.0; for Solubility, Phosphate buffer pH 7.5: 100 mM phosphate buffer pH7.5
Procedure, shortened: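 Read-out: turbidity as absorbance at 325 nm (280 nm also read), single samples, ambient temperature of typically 25°C. Samples were a 1:1 mix of 2 mg/ml stock (water, pH 2.5) with 100 mM acetate, histidine or phosphate buffers spanning pH 4.0–7.5. Cut-off: A325 ≤ 0.02 indicates ≥ 1 mg/ml.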

[3] = cAMP induction in COS7 cells expressing hCTR2, average of a minimum of 3 determinations, read-out: hCTR2 EC50

Row | EC50 [1, 3] | SMILES | EC50 [1] | Solubility, Acetate buffer pH 4 [2] | Solubility, Acetate buffer pH 5 [2] | Solubility, Histidine buffer pH 6 [2] | Solubility, Histidine buffer pH 7 [2] | Solubility, Phosphate buffer pH 6 [2] | Solubility, Phosphate buffer pH 7 [2] | Solubility, Phosphate buffer pH 7.5 [2]
1 | – | CC[C@H](C)[C@@H](C(=O)N[C@@H](CC(C)C)C(=O)N[C@@H](CO)C(=O)N[C@@H](CO)C(=O)N[C@H](C(=O)N[C@@H](CC(N)=O)C(=O)N[C@H](C(=O)NCC(=O)N[C@@H](CO)C(=O)N[C@@H](CC(N)=O)C(=O)N[C@H](C(=O)N1CCC[C@H]1C(N)=O)[C@@H](C)O)C(C)C)[C@@H](C)O)N(C)C(=O)[C@H](C)NC(=O)CN(C)C(=O)[C@H](Cc1ccccc1)NC(=O)[C@H](CC(N)=O)NC(=O)[C@H](CC(N)=O)NC(=O)[C@H](CO)NC(=O)[C@H](CO)NC(=O)[C@H](Cc1c[nH]cn1)NC(=O)[C@H](CC(C)C)NC(=O)[C@H](Cc1ccccc1)NC(=O)[C@H](CCC(=O)O)NC(=O)[C@H](C)NC(=O)[C@H](CC(C)C)NC(=O)[C@H](CCCNC(=N)N)NC(=O)[C@H](CCC(N)=O)NC(=O)[C@@H](NC(=O)[C@H](C)NC(=O)[C@@H]1CSSC[C@H](NC(=O)[C@H](CCCNC(=N)N)NC(=O)CC[C@H](NC(=O)CCCCCCCCCCCCCCCCCCC(=O)O)C(=O)O)C(=O)N[C@@H](CC(N)=O)C(=O)N[C@@H]([C@@H](C)O)C(=O)N[C@@H](C)C(=O)N[C@@H]([C@@H](C)O)C(=O)N1)[C@@H](C)O [Compound 39, [19CD]-isoGlu-RC()NTATC()ATQRLAEFLHSSNNF-Gly(Me)-A-Ile(Me)-LSSTNVGSNTP-NH2] ({C20 diacid-γGlu}-RCNTATCATQRLAEFLHSSNNF[Sar]A[NMeI]LSSTNVGSNTP-NH2; disulfide 2-7) | 0.19 nM | SS (SS indicates solubility ≥ 1mg/ml) | SS (SS indicates solubility ≥ 1mg/ml) | SS (SS indicates solubility ≥ 1mg/ml) | SS (SS indicates solubility ≥ 1mg/ml) | SS (SS indicates solubility ≥ 1mg/ml) | SS (SS indicates solubility ≥ 1mg/ml) | SS (SS indicates solubility ≥ 1mg/ml)
2 | 0.38 nM | CC[C@H](C)[C@@H](C(=O)N[C@@H](CC(C)C)C(=O)N[C@@H](CO)C(=O)N[C@@H](CO)C(=O)N[C@H](C(=O)N[C@@H](CC(N)=O)C(=O)N[C@H](C(=O)NCC(=O)N[C@@H](CO)C(=O)N[C@@H](CC(N)=O)C(=O)N[C@H](C(=O)N1CCC[C@H]1C(N)=O)[C@@H](C)O)C(C)C)[C@@H](C)O)N(C)C(=O)CN(C)C(=O)[C@H](Cc1ccccc1)NC(=O)[C@H](CC(N)=O)NC(=O)[C@H](CC(N)=O)NC(=O)[C@H](CO)NC(=O)[C@H](CO)NC(=O)[C@H](Cc1c[nH]cn1)NC(=O)[C@H](CC(C)C)NC(=O)[C@H](Cc1ccccc1)NC(=O)[C@H](CCC(=O)O)NC(=O)[C@H](C)NC(=O)[C@H](CC(C)C)NC(=O)[C@H](CCCNC(=N)N)NC(=O)[C@H](CCC(N)=O)NC(=O)[C@@H](NC(=O)[C@H](C)NC(=O)[C@@H]1CSSC[C@H](NC(=O)[C@H](CCCNC(=N)N)NC(=O)CC[C@H](NC(=O)CCCCCCCCCCCCCCCCCCC(=O)O)C(=O)O)C(=O)N[C@@H](CC(N)=O)C(=O)N[C@@H]([C@@H](C)O)C(=O)N[C@@H](C)C(=O)N[C@@H]([C@@H](C)O)C(=O)N1)[C@@H](C)O [Compound 40, [19CD]-isoGlu-RC()NTATC()ATQRLAEFLHSSNNF-Gly(Me)-Ile(Me)-LSSTNVGSNTP-NH2] ({C20 diacid-γGlu}-RCNTATCATQRLAEFLHSSNNF[Sar][NMeI]LSSTNVGSNTP-NH2; disulfide 2-7) | – | SS (SS indicates solubility ≥ 1mg/ml) | SS (SS indicates solubility ≥ 1mg/ml) | SS (SS indicates solubility ≥ 1mg/ml) | SS (SS indicates solubility ≥ 1mg/ml) | SS (SS indicates solubility ≥ 1mg/ml) | SS (SS indicates solubility ≥ 1mg/ml) | SS (SS indicates solubility ≥ 1mg/ml)
3 | – | CC[C@H](C)[C@@H](C(=O)N[C@@H](CC(C)C)C(=O)N[C@@H](CO)C(=O)N[C@@H](CO)C(=O)N[C@H](C(=O)N[C@@H](CC(N)=O)C(=O)N[C@H](C(=O)NCC(=O)N[C@@H](CO)C(=O)N[C@@H](CC(N)=O)C(=O)N[C@H](C(=O)N1CCC[C@H]1C(N)=O)[C@@H](C)O)C(C)C)[C@@H](C)O)N(C)C(=O)[C@H](C)NC(=O)CN(C)C(=O)[C@H](Cc1ccccc1)NC(=O)[C@H](CC(N)=O)NC(=O)[C@H](CC(N)=O)NC(=O)[C@H](CO)NC(=O)[C@H](CO)NC(=O)[C@H](CC(C)C)NC(=O)[C@H](Cc1ccccc1)NC(=O)[C@H](CCC(=O)O)NC(=O)[C@H](C)NC(=O)[C@H](CC(C)C)NC(=O)[C@H](CCCNC(=N)N)NC(=O)[C@H](CCC(N)=O)NC(=O)[C@@H](NC(=O)[C@H](C)NC(=O)[C@@H]1CSSC[C@H](NC(=O)[C@H](CCCNC(=N)N)NC(=O)CC[C@H](NC(=O)CCCCCCCCCCCCCCCCCCC(=O)O)C(=O)O)C(=O)N[C@@H](CC(N)=O)C(=O)N[C@@H]([C@@H](C)O)C(=O)N[C@@H](C)C(=O)N[C@@H]([C@@H](C)O)C(=O)N1)[C@@H](C)O [Compound 41, [19CD]-isoGlu-RC()NTATC()ATQRLAEFLSSNNF-Gly(Me)-A-Ile(Me)-LSSTNVGSNTP-NH2] ({C20 diacid-γGlu}-RCNTATCATQRLAEFLSSNNF[Sar]A[NMeI]LSSTNVGSNTP-NH2; disulfide 2-7) | 0.071 nM | SS (SS indicates solubility ≥ 1mg/ml) | SS (SS indicates solubility ≥ 1mg/ml) | SS (SS indicates solubility ≥ 1mg/ml) | SS (SS indicates solubility ≥ 1mg/ml) | SS (SS indicates solubility ≥ 1mg/ml) | SS (SS indicates solubility ≥ 1mg/ml) | SS (SS indicates solubility ≥ 1mg/ml)
4 | 0.12 nM | CC[C@H](C)[C@@H](C(=O)N[C@@H](CC(C)C)C(=O)N[C@@H](CO)C(=O)N[C@@H](CO)C(=O)N[C@H](C(=O)N[C@@H](CC(N)=O)C(=O)N[C@H](C(=O)NCC(=O)N[C@@H](CO)C(=O)N[C@@H](CC(N)=O)C(=O)N[C@H](C(=O)N1CCC[C@H]1C(N)=O)[C@@H](C)O)C(C)C)[C@@H](C)O)N(C)C(=O)CN(C)C(=O)[C@H](Cc1ccccc1)NC(=O)[C@H](CC(N)=O)NC(=O)[C@H](CC(N)=O)NC(=O)[C@H](CO)NC(=O)[C@H](CO)NC(=O)[C@H](CC(C)C)NC(=O)[C@H](Cc1ccccc1)NC(=O)[C@H](CCC(=O)O)NC(=O)[C@H](C)NC(=O)[C@H](CC(C)C)NC(=O)[C@H](CCCNC(=N)N)NC(=O)[C@H](CCC(N)=O)NC(=O)[C@@H](NC(=O)[C@H](C)NC(=O)[C@@H]1CSSC[C@H](NC(=O)[C@H](CCCNC(=N)N)NC(=O)CC[C@H](NC(=O)CCCCCCCCCCCCCCCCCCC(=O)O)C(=O)O)C(=O)N[C@@H](CC(N)=O)C(=O)N[C@@H]([C@@H](C)O)C(=O)N[C@@H](C)C(=O)N[C@@H]([C@@H](C)O)C(=O)N1)[C@@H](C)O [Compound 42, [19CD]-isoGlu-RC()NTATC()ATQRLAEFLSSNNF-Gly(Me)-Ile(Me)-LSSTNVGSNTP-NH2] ({C20 diacid-γGlu}-RCNTATCATQRLAEFLSSNNF[Sar][NMeI]LSSTNVGSNTP-NH2; disulfide 2-7) | – | SS (SS indicates solubility ≥ 1mg/ml) | SS (SS indicates solubility ≥ 1mg/ml) | SS (SS indicates solubility ≥ 1mg/ml) | SS (SS indicates solubility ≥ 1mg/ml) | SS (SS indicates solubility ≥ 1mg/ml) | SS (SS indicates solubility ≥ 1mg/ml) | SS (SS indicates solubility ≥ 1mg/ml)
